ChEMBL document CHEMBL2010795, “Anti-inflammatory and anti-arthritic effects of new synthetic 3-(4-hydroxyphenyl)-4-(4-thiomethoxyphenyl)-1H-pyrrole-2,5-dione” (2012)
Active and inactive are the calls of the source. The calls are words filed in the database; no cut-off is given here.

How the values were obtained:
[1] = biological target: T1, Prostaglandin G/H synthase 1 (Ovis aries) (UniProt P05979); assay: Inhibition of ovine recombinant COX1 assessed as PGF2alpha production at 0.1 to 40 uM preincubated for 10 mins before substrate addition by EIA
T1 sequence (whole entry): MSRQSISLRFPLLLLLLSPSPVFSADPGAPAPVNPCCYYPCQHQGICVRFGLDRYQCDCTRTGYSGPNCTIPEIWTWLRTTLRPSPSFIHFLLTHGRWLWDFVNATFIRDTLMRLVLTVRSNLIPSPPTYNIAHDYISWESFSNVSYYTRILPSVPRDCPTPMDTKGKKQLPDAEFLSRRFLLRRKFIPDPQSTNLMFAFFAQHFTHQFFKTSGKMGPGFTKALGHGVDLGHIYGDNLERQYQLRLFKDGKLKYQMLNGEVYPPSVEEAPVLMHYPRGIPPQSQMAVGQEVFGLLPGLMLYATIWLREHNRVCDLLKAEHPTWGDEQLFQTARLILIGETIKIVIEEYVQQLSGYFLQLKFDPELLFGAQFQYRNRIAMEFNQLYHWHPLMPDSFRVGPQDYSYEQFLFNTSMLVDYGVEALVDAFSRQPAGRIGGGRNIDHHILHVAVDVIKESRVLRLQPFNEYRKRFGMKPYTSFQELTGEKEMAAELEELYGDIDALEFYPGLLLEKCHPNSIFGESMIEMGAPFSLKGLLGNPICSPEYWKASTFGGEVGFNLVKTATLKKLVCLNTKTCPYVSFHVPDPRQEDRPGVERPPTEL

Rattus norvegicus [2] = assay: Antiarthritic activity in Freund's complete adjuvant-induced Sprague-Dawley rat arthritis model assessed as reduction in paw volume at 50 mg/kg, po administered daily on day 9 to day 19 post challenge; type: functional; parameters: scale not given: the % may be the effect or the level left
Rattus norvegicus [3] = assay: Antiinflammatory activity in rat assessed as inhibition of carrageenan-induced PGE2 production in hind paw at 25 mg/kg, po administered 1 hr before carrageenan challenge measured up to 5 hrs by EIA; type: functional, organism-based; parameters: dose 25 mg/kg
Rattus norvegicus [4] = assay: Antiinflammatory activity in rat assessed as inhibition of carrageenan-induced myeloperoxidase activity in hind paw at 25 mg/kg, po administered 1 hr before carrageenan challenge measured up to 5 hrs by EIA; type: functional, organism-based; parameters: dose 25 mg/kg
Rattus norvegicus [5] = assay: Antiarthritic activity in Freund's complete adjuvant-induced Sprague-Dawley rat arthritis model assessed as inhibition of ankle swelling at 25 to 50 mg/kg, po administered daily on day 9 to day 19 post challenge; type: functional, organism-based
RAW264.7 [6] = assay: Inhibition of iNOS protein expression in mouse RAW264.7 cells assessed as reduction in NO production by Western blot analysis; type: functional, cell-based
Rattus norvegicus [7] = assay: Antiarthritic activity in Freund's complete adjuvant-induced Sprague-Dawley rat arthritis model at 50 mg/kg, po administered daily on day 9 to day 19 post challenge; type: functional, organism-based; parameters: dose 50 mg/kg
RAW264.7 [8] = assay: Inhibition of LPS-induced IL-6 mRNA expression in mouse RAW264.7 cells at 10 to 40 uM treated 1 hr before LPS challenge measured after 24 hrs by RT-PCR analysis; type: functional, cell-based
RAW264.7 [9] = assay: Inhibition of LPS-induced IL-6 production in mouse RAW264.7 cells at 10 to 40 uM treated 1 hr before LPS challenge measured after 24 hrs by EIA; type: functional, cell-based
RAW264.7 [10] = assay: Effect on COX-2 mRNA expression in LPS-stimulated mouse RAW264.7 cells at 10 to 40 uM preincubated for 1 hr prior LPS challenge measured after 4 hrs by RT-PCR analysis; type: functional, cell-based
[11] = biological target: T2, Prostaglandin G/H synthase 2 (Homo sapiens) (UniProt P35354); assay: Inhibition of human recombinant COX2 assessed as PGF2alpha production preincubated for 10 mins before substrate addition by EIA
T2 sequence (whole entry): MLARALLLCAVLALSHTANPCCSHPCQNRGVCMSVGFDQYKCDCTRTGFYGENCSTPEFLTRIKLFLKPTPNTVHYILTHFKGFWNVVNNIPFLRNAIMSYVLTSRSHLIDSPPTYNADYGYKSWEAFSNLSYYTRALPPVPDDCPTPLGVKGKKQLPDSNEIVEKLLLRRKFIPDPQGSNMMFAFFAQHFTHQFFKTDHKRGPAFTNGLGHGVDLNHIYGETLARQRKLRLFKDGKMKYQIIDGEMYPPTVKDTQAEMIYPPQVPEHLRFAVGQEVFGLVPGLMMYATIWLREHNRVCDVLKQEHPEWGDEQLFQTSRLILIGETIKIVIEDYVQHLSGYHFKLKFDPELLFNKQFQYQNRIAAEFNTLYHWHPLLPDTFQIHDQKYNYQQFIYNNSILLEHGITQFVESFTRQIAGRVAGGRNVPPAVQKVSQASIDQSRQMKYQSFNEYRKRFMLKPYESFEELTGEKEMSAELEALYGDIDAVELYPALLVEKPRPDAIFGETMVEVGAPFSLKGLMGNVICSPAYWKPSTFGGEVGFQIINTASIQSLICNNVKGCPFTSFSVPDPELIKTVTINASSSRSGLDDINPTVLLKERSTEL

Rattus norvegicus [12] = assay: Antiarthritic activity in Freund's complete adjuvant-induced Sprague-Dawley rat arthritis model assessed as inhibition of erythema at 25 to 50 mg/kg, po administered daily on day 9 to day 19 post challenge; type: functional, organism-based
Rattus norvegicus [13] = assay: Antiarthritic activity in Freund's complete adjuvant-induced Sprague-Dawley rat arthritis model assessed as reduction in plasma PGE2 levels at 50 mg/kg, po administered daily on day 9 to day 19 post challenge measured after 19 days by EIA; type: functional; parameters: scale not given: the % may be the effect or the level left
RAW264.7 [14] = assay: Effect on COX-1 mRNA expression in LPS-stimulated mouse RAW264.7 cells; type: functional, cell-based
RAW264.7 [15] = assay: Inhibition of LPS-induced iNOS mRNA expression in mouse RAW264.7 cells assessed as reduction in NO production at 10 to 40 uM treated 1 hr before LPS challenge measured after 4 hrs by RT-PCR analysis; type: functional, cell-based
RAW264.7 [16] = assay: Inhibition of LPS-induced IL-1 beta production in mouse RAW264.7 cells at 10 to 40 uM treated 1 hr before LPS challenge measured after 24 hrs by EIA; type: functional, cell-based
RAW264.7 [17] = assay: Effect on COX-1 protein expression in LPS-stimulated mouse RAW264.7 cells; type: functional, cell-based
Rattus norvegicus [18] = assay: Antiinflammatory activity in rat assessed as inhibition of carrageenan-induced hind paw edema at 25 mg/kg, po administered 1 hr before carrageenan challenge measured up to 5 hrs by plethysmometer; type: functional, organism-based; parameters: dose 25 mg/kg
Rattus norvegicus [19] = assay: Antiinflammatory activity in rat assessed as inhibition of carrageenan-induced hind paw edema at 50 mg/kg, po administered 1 hr before carrageenan challenge measured up to 5 hrs by plethysmometer; type: functional, organism-based; parameters: dose 50 mg/kg
Rattus norvegicus [20] = assay: Antiarthritic activity in Freund's complete adjuvant-induced Sprague-Dawley rat arthritis model assessed as reduction in IL-1beta mRNA expression at 50 mg/kg, po administered daily on day 9 to day 19 post challenge measured on day 20 by RT-PCR analysis; type: functional, organism-based; parameters: dose 50 mg/kg
RAW264.7 [21] = assay: Inhibition of LPS-induced PGE2 production in mouse RAW264.7 cells treated 1 hr before LPS challenge measured after 24 hrs by EIA; type: functional, cell-based
Rattus norvegicus [22] = assay: Antiarthritic activity in Freund's complete adjuvant-induced Sprague-Dawley rat arthritis model assessed as reduction in IL-6 mRNA expression at 50 mg/kg, po administered daily on day 9 to day 19 post challenge measured on day 20 by RT-PCR analysis; type: functional, organism-based; parameters: dose 50 mg/kg
RAW264.7 [23] = assay: Inhibition of LPS-induced nitric oxide production in mouse RAW264.7 cells at 10 to 40 uM treated 1 hr before LPS challenge measured after 24 hrs by Griess method; type: functional, cell-based
Rattus norvegicus [24] = assay: Antiarthritic activity in Freund's complete adjuvant-induced Sprague-Dawley rat arthritis model assessed as inhibition of edema at 25 to 50 mg/kg, po administered daily on day 9 to day 19 post challenge; type: functional, organism-based
Rattus norvegicus [25] = assay: Antiarthritic activity in Freund's complete adjuvant-induced Sprague-Dawley rat arthritis model assessed as inhibition of joint dysfunction at 25 to 50 mg/kg, po administered daily on day 9 to day 19 post challenge; type: functional, organism-based
Rattus norvegicus [26] = assay: Antiarthritic activity in Freund's complete adjuvant-induced Sprague-Dawley rat arthritis model at 25 mg/kg, po administered daily on day 9 to day 19 post challenge; type: functional, organism-based; parameters: dose 25 mg/kg
RAW264.7 [27] = assay: Inhibition of LPS-induced IL-1 beta mRNA expression in mouse RAW264.7 cells at 10 to 40 uM treated 1 hr before LPS challenge measured after 24 hrs by RT-PCR analysis; type: functional, cell-based
RAW264.7 [28] = assay: Effect on COX-2 protein expression in LPS-stimulated mouse RAW264.7 cells at 10 to 40 uM preincubated for 1 hr prior LPS challenge measured after 24 hrs by Western blot analysis; type: functional, cell-based

Compound: CSc1ccc(C2=C(c3ccc(O)cc3)C(=O)NC2=O)cc1
- inhibition [1]: inactive
- Activity (Rattus norvegicus [2]): 53%
- inhibition (Rattus norvegicus [3]): Active
- inhibition (Rattus norvegicus [4]): Active
- inhibition (Rattus norvegicus [5]): Active
- inhibition (RAW264.7 [6]): Active
- Activity (Rattus norvegicus [7]): Active
- inhibition (RAW264.7 [8]): Active
- inhibition (RAW264.7 [9]): Active
- inhibition (RAW264.7 [10]): inactive
- inhibition [11]: Dose-dependent effect
- inhibition (Rattus norvegicus [12]): Active
- Activity (Rattus norvegicus [13]): 42%
- inhibition (RAW264.7 [14]): inactive
- inhibition (RAW264.7 [15]): Active
- inhibition (RAW264.7 [16]): Active
- inhibition (RAW264.7 [17]): inactive
- inhibition (Rattus norvegicus [18]): Active
- inhibition (Rattus norvegicus [19]): Active
- Activity (Rattus norvegicus [20]): Active
- inhibition (RAW264.7 [21]): Dose-dependent effect
- Activity (Rattus norvegicus [22]): Active
- inhibition (RAW264.7 [23]): Active
- inhibition (Rattus norvegicus [24]): Active
- inhibition (Rattus norvegicus [25]): Active
- Activity (Rattus norvegicus [26]): Active
- inhibition (RAW264.7 [27]): Active
- inhibition (RAW264.7 [28]): inactive

Compound: CC(C)Cc1ccc(C(C)C(=O)O)cc1 (stereo not given)
- Activity (Rattus norvegicus [7]): Active
- inhibition (Rattus norvegicus [19]): Active
